Laboratory results published in patent US20240374750A1, “LINKER COMPOUND AND COMPLEX COMPOUND CONTAINING SAME” (TOHOKU UNIVERSITY, priority 2021, published 2024).

How the values were obtained:
Assay type in all cases: physicochemical
[1] = Reductive cleavage reaction with LiBH4 in THF traced by UV spectrum (Test Example 2); conditions: 45 μM in THF, 11 equivalents LiBH4, absorption at 242 nm
Method: The control of the electron density of the S atom by the substituent was expected from the above NMR results, and thus, a reductive cleavage reaction of the thiophenol-type disulfide linker was actually examined. First, a reaction of a thiophenol derivative model compound (compound of formula (2)) with a reducing agent LiBH4 in an organic solvent THF was carried out as a model reaction (formula (12)) using a UV spectrum which can be easily examined, and a pseudo-first order reaction rate was examined.
As the THF, THF available from Wako Pure Chemical Industries, Ltd., product code 207-17765, super dehydrated, and stabilizer-free was used, and as the cell, a cell of 10 mm×10 mm was used. A reduction reaction of an oxidized form (disulfide) of the compound of the formula (2), which is an unsubstituted model compound, was carried out in the cell. The reaction was carried out using an excess amount (11 equivalents) of LiBH4 relative to the oxidized form of the compound of the formula (2) (45 μM in THF). LiBH4 was adjusted by diluting a commercially available THF 2M solution and used in the reaction.

[2] = Reductive cleavage reaction with GSH in mixed system, NMR (Test Example 4); conditions: ArSSrA (H)/GSH=4.4 mM/4.5 mM, 50 mM phosphate buffer
Method: As NMR spectrum measurement conditions, GSH of the formula (13) was added to ArSSrA (H) of the formula (7) in a 50 mM phosphate buffer to adjust a solution of ArSSrA (H)/GSH=4.4 mM/4.5 mM, and the measurement by NMR was carried out. A double tube (SHIGEMI Co., Ltd., Model SP-405) was used and a TMS-containing CDCl3 solution (LOCK solvent) was placed in the outside to adjust an NMR tube.
In the NMR measurement, the water elimination (presaturation method) measurement was performed with reference to Casi, G. et al., J. Controlled Release. 2012, 161, 121, 422 to 428, and the like.
(Initial concentration ArSSrA (H)/GSH=4.4 mM/4.5 mM)

[3] = Cleavage reaction under normal cell model condition, NMR (Test Example 5); conditions: ArS—SrA 225 μM, GSH 450 μM (normal cell model)
Method: ArS—SrA (H) of the formula (7) was administered to a cell model of a GSH concentration assuming a realistic intracellular drug concentration to examine the cleavage reaction of the linker compound.
(§1) At an ArS—SrA (H) concentration (225 μM), the GSH concentration of a normal cell was approximated to 450 μM, and the same measurement was performed. To prevent a peak of the aromatic region having a low concentration from being overlapped by the peak of CHCl3 contained in CDCl3, the measurement was performed with D2O in outside the double tube. The overall compound concentration was low and the peak ratio of water was high, and thus, the number of times of integration was increased for measurement to distinguish between the peaks of the compounds and the peak of the baseline.

[4] = Cleavage reaction under cancer cell model condition, NMR (Test Examples 6 and 9)
Method: At a concentration of ArS—SrA (H) of the formula (7) (225 μM) assuming a realistic intracellular drug concentration, a GSH concentration of a cancer cell was approximated to 20 mM, and the same measurement was performed.
as §1, with “To prevent” for “At an ArS—SrA (H) concentration (225 μM), the GSH concentration of a normal cell was approximated to 450 μM, and the same measurement was performed. To prevent”, “D2O in the outside the” for “D2O in outside the”
ArSSrA (F) and ArSSrA (NO2) were subjected to the same test as in Test Example 6 to examine their cleavage reactions in the normal cell model and the cancer cell model. The results of ArSSrA (F) and ArSSrA (NO2) are shown in Table 6 and Table 7, respectively.

[5] = Reductive cleavage reaction of F- and NO2-substituted products, NMR (Test Examples 7 and 8); conditions: same conditions as in Test Example 5
[6] = ArS—SrA 225 μM, GSH 20 mM (cancer cell model), 100 min.
[7] = ArS—SrA 225 μM, GSH 20 mM (cancer cell model), 100 minutes
[8] = ArS—SrA 225 μM, GSH 20 mM (cancer cell model), 1 day

## c1ccc(SSc2ccccc2)cc1 [formula (2)]
[1]
  pseudo first order reaction rate constant k: 1.97×10^−2

## O=C(O)c1ccccc1SSc1ccccc1C(=O)O [ArSSrA (H)]
[2]; 25 min.
  ArSH abundance ratio: 13%
  ArS—SG abundance ratio (1st ArS—SG column): 3.8%
  ArS—SG abundance ratio (2nd ArS—SG column): 7.2%
  ArS—SrA abundance ratio (remaining disulfide): 83%
  GSH abundance ratio: 74%
  GS—SG abundance ratio: 19%
[2]; 100 min.
  ArSH abundance ratio: 26%
  ArS—SG abundance ratio (1st ArS—SG column): 11%
  ArS—SG abundance ratio (2nd ArS—SG column): 20%
  ArS—SrA abundance ratio (remaining disulfide): 62%
  GSH abundance ratio: 48%
  GS—SG abundance ratio: 32%
[2]; 1 day
  ArSH abundance ratio: 12%
  ArS—SG abundance ratio (1st ArS—SG column): 31%
  ArS—SG abundance ratio (2nd ArS—SG column): 57%
  ArS—SrA abundance ratio (remaining disulfide): 57%
  GSH abundance ratio: 11%
  GS—SG abundance ratio: 32%
[3]; 100 min.
  ArSH abundance ratio: 8.2%
  ArS—SG abundance ratio (1st ArS—SG column): 2%
  ArS—SG abundance ratio (2nd ArS—SG column): 1.8%
  ArS—SrA abundance ratio (remaining disulfide): 89%
  GSH abundance ratio: 88%
  GS—SG abundance ratio: 10%
[3]; 1 day
  ArSH abundance ratio: 3.3%
  ArS—SG abundance ratio (1st ArS—SG column): 24%
  ArS—SG abundance ratio (2nd ArS—SG column): 21%
  ArS—SrA abundance ratio (remaining disulfide): 84%
  GSH abundance ratio (GSH remained): 18%
  GSH consumed: 82%
  GS—SG abundance ratio: 62%
  linker disulfide cleaved: about 16%
[4]; [6]
  ArSH abundance ratio: 82%
  ArS—SG abundance ratio (1st ArS—SG column): 0%
  ArS—SG abundance ratio (2nd ArS—SG column): 0%
  ArS—SrA abundance ratio (remaining disulfide): 19%
  GSH abundance ratio: 97%
  GS—SG abundance ratio: 3.4%
[4]; [7]
  linker disulfide cleaved (dissociated): 82%
[4]; [8]
  ArSH abundance ratio: 100%
  ArS—SG abundance ratio (1st ArS—SG column): 0%
  ArS—SG abundance ratio (2nd ArS—SG column): 0%
  ArS—SrA abundance ratio (remaining disulfide): 0%
  GSH abundance ratio: 91%
  GS—SG abundance ratio: 8.8%
  linker disulfide cleaved (dissociated): 100%

## O=C(O)c1cc(SSc2ccc([N+](=O)[O-])c(C(=O)O)c2)ccc1[N+](=O)[O-] [ArSSrA (NO2)]
[4]; 100 min, 225 μM
  ArS—SrA abundance ratio (remaining disulfide): 5%
[4]; 24 h, 225 μM
  ArS—SrA abundance ratio (remaining disulfide): 0%
[4]; [6]
  ArSH abundance ratio: 95%
  ArS—SG abundance ratio (1st ArS—SG column): 0%
  ArS—SG abundance ratio (2nd ArS—SG column): 0%
  GSH abundance ratio: 95%
  GS—SG abundance ratio: 4%
[4]; [7]
  linker disulfide cleaved (dissociated): about 90%
[4]; [8]
  ArSH abundance ratio: 100%
  ArS—SG abundance ratio (1st ArS—SG column): 0%
  ArS—SG abundance ratio (2nd ArS—SG column): 0%
  GSH abundance ratio: 90%
  GS—SG abundance ratio: 10%
  linker disulfide cleaved (dissociated): all
[5]; 100 min.
  ArSH abundance ratio: 51%
  ArS—SG abundance ratio (1st ArS—SG column): 20%
  ArS—SG abundance ratio (2nd ArS—SG column): 39%
  ArS—SrA abundance ratio (remaining disulfide): 29%
  GSH abundance ratio: 30%
  GS—SG abundance ratio: 9%
[5]; 1 day
  ArSH abundance ratio: 48%
  ArS—SG abundance ratio (1st ArS—SG column): 22%
  ArS—SG abundance ratio (2nd ArS—SG column): 45%
  GSH abundance ratio: 4%
  GS—SG abundance ratio: 26%

## O=C(O)c1c(F)cccc1SSc1cccc(F)c1C(=O)O [ArSSrA (F)]
[4]; [6]
  ArSH abundance ratio: 92%
  ArS—SG abundance ratio (1st ArS—SG column): 0%
  ArS—SG abundance ratio (2nd ArS—SG column): 0%
  ArS—SrA abundance ratio (remaining disulfide): 8%
  GSH abundance ratio: 96%
  GS—SG abundance ratio: 3.8%
[4]; [7]
  linker disulfide cleaved (dissociated): about 90%
[4]; [8]
  ArSH abundance ratio: 100%
  ArS—SG abundance ratio (1st ArS—SG column): 0%
  ArS—SG abundance ratio (2nd ArS—SG column): 0%
  ArS—SrA abundance ratio (remaining disulfide): 0%
  GSH abundance ratio: 90%
  GS—SG abundance ratio: 9.5%
  linker disulfide cleaved (dissociated): all
[5]; 100 min.
  ArSH abundance ratio: 38%
  ArS—SG abundance ratio (1st ArS—SG column): 20%
  ArS—SG abundance ratio (2nd ArS—SG column): 39%
  ArS—SrA abundance ratio (remaining disulfide): 42%
  GSH abundance ratio: 42%
  GS—SG abundance ratio: 9%
[5]; 1 day
  ArSH abundance ratio: 36%
  ArS—SG abundance ratio (1st ArS—SG column): 21%
  ArS—SG abundance ratio (2nd ArS—SG column): 41%
  GSH abundance ratio: 8%
  GS—SG abundance ratio: 26%
